This note sets out measurements from patent publication US10765680B2, “Combination of a MCL-1 inhibitor and a taxane compound, uses and pharmaceutical compositions thereof” (priority 2017, dated 2020).

In assay [1] the test system is MDA-MB-453 breast cancer cell line. Briefly: 3 days CellTiterGlo viability, checkerboard combination, MDA-MB-453. Type of assay: cell-based. The settings on record: single agent. As for the experimental part:
(§1) In addition, all media contained penicillin (100 IU/ml), streptomycin (100 μg/ml) and L-glutamine (2 mM).
(§2) Cell lines were cultured at 37° C. in a humidified atmosphere containing 5% CO2 and expanded in T-150 flasks. In all cases cells were thawed from frozen stocks, expanded through ≥1 passage using appropriate dilutions, counted and assessed for viability using a CASY cell counter prior to plating 150 μl/well at the densities indicated in Table 2 into 96-well plates.
(§3) Stock solutions of compounds were prepared at a concentration of 5 mM in DMSO and stored at −20° C.
(§4) In order to analyze the activity of the compounds in single agent or in combination, cells were seeded and treated with seven or eight 3.16-fold serial dilutions of each compound dispensed, either individually or in all possible permutations in a checkerboard fashion, directly into the cell assay plates as indicated in FIGS. 5 and 6. Effects of the single agents as well as their checkerboard combinations on cell viability were assessed after 3 days of incubation at 37° C./5% CO2 by quantification of cellular ATP levels using CellTiterGlo at 75 μL reagent/well. At least two independent experiments, each one performed in duplicates, were performed. Luminescence was quantified on a multipurpose plate reader.
(§5) Single agent IC50s were calculated using standard four-parametric curve fitting. Potential synergistic interactions between compound combinations were assessed using the Excess Inhibition 2D matrix according to the Loewe additivity model and are reported as Synergy Score (Lehar et al. 2009). All calculations were performed using Clalice™ Bioinformatics Software available in Horizon website.
On the technique in general: Cellular ATP, detected with luciferase, serves as a proxy for viable cell number.

Assay [2] has as its system MDA-MB-468 breast cancer cell line. Briefly: 3 days CellTiterGlo viability, checkerboard combination, MDA-MB-468. Type of assay: cell-based. The settings on record: single agent. As for the experimental part:
as §1, §2, §3, §4, §5

Assay [3] deals with H522 lung cancer cell line. Briefly: 3 days CellTiterGlo viability, checkerboard combination, H522. The format is cell-based. The settings on record: single agent. The protocol: as §1, §2, §3, §4, §5
For assay [4], the system named is 2 breast cancer cell lines (MDA-MB-453 and MDA-MB-468) and one lung cancer cell line (H522). Briefly: 3 days CellTiterGlo viability, summary of the three cell lines. The format is cell-based. The settings on record: for cell lines tested whose growth was inhibited by the single agent: three cell lines tested. The protocol: as §1, §2, §3, §4, §5
The subject of assay [5] is TNBC PDX models 110T, 838T and PDX OD-BRE-0589. The note with it: Compound 2 25 mg/kg i.v. weekly for six weeks; three TNBC PDX models.
The subject of assay [6] is BT-20 breast cancer cell line. Briefly: 72 hours CellTiter-Glo proliferation assay, BT-20. The format is cell-based. The note with it: Homo sapiens, single agent, read-out: Abs IC50. The protocol: (§6) Compounds were dissolved in 100% DMSO (Sigma, Catalog # D2438-50 ML) at a stock concentration of 10 mM and stored at −20° C. until use. Compounds were arrayed in 2 ml deep 96-well plates (Greiner bio-one, catalog number 780271) serially diluted 3-fold. Compound 1 was used over a concentration range of 0.0-10.0 μM. Paclitaxel was used over a concentration range of 0.0-1.0 μM in breast cancer cells and 0.0-2.0 μM range in lung cancer cells.
(§7) All cell lines were purchased from the American Type Culture Collection and cultured according to vendor recommendations. […] All cell lines were determined to be free of mycoplasma contamination by a PCR detection assay performed at Idexx Radil (Columbia, Mo., USA) and authenticated by SNP analysis. […] Cells were expanded to T-75 flasks and assessed for viability using a Beckman-Coulter ViCell counter prior to plating. […]
(§8) Cell proliferation was measured in 72 hours CellTiter-Glo™ (CTG) assays and all results shown are the result of at least triplicate measurements. […] After 72 hours of compound treatment the effects of compounds on cell proliferation was determined using the CellTiter-Glo™ Luminescent Cell Viability Assay (Promega, Catalog # G7573). This is a homogeneous method to determine the number of viable cells in culture based on quantitation of the ATP present, which signals the presence of metabolically active cells. […]

Assay [7] relates to BT-474 breast cancer cell line. Briefly: 72 hours CellTiter-Glo proliferation assay, BT-474. Type of assay: cell-based. The settings on record: Homo sapiens, single agent, read-out: Abs IC50. As for the experimental part:
as §6, §7, §8

The subject of assay [8] is BT-549 breast cancer cell line. Briefly: 72 hours CellTiter-Glo proliferation assay, BT-549. The note with it: Homo sapiens, single agent, read-out: Abs IC50. Type of assay: cell-based. As for the experimental part:
as §6, §7, §8

Assay [9] relates to Cal-148 breast cancer cell line. Briefly: 72 hours CellTiter-Glo proliferation assay, Cal-148. The settings on record: Homo sapiens, single agent, read-out: Abs IC50. Type of assay: cell-based. As for the experimental part: as §6, §7, §8
Assay [10] has as its system HCC1143 breast cancer cell line. Briefly: 72 hours CellTiter-Glo proliferation assay, HCC1143. Type of assay: cell-based. The note with it: Homo sapiens, single agent, read-out: Abs IC50. The protocol: as §6, §7, §8
Assay [11] deals with HCC1395 breast cancer cell line. Briefly: 72 hours CellTiter-Glo proliferation assay, HCC1395. The format is cell-based. The settings on record: Homo sapiens, single agent, read-out: Abs IC50. As for the experimental part:
as §6, §7, §8

In assay [12] the test system is HCC1500 breast cancer cell line. Briefly: 72 hours CellTiter-Glo proliferation assay, HCC1500. Type of assay: cell-based. The settings on record: single agent, read-out: Abs IC50. The protocol:
as §6, §7, §8

Assay [13] relates to HCC1937 breast cancer cell line. Briefly: 72 hours CellTiter-Glo proliferation assay, HCC1937. Type of assay: cell-based. The note with it: Homo sapiens, single agent, read-out: Abs IC50. As for the experimental part:
as §6, §7, §8

For assay [14], the system named is HCC1954 breast cancer cell line. Briefly: 72 hours CellTiter-Glo proliferation assay, HCC1954. Type of assay: cell-based. The note with it: Homo sapiens, single agent, read-out: Abs IC50. The protocol:
as §6, §7, §8

In assay [15] the test system is HCC38 breast cancer cell line. Briefly: 72 hours CellTiter-Glo proliferation assay, HCC38. Type of assay: cell-based. The settings on record: Homo sapiens, single agent, read-out: Abs IC50. As for the experimental part:
as §6, §7, §8

Assay [16] relates to HCC70 breast cancer cell line. Briefly: 72 hours CellTiter-Glo proliferation assay, HCC70. Type of assay: cell-based. The settings on record: Homo sapiens, single agent, read-out: Abs IC50. As for the experimental part: as §6, §7, §8
For assay [17], the system named is Hs 578T breast cancer cell line. Briefly: 72 hours CellTiter-Glo proliferation assay, Hs 578T. The format is cell-based. The settings on record: Homo sapiens, single agent, read-out: Abs IC50. The protocol:
as §6, §7, §8

For assay [18], the system named is MCF7 breast cancer cell line. Briefly: 72 hours CellTiter-Glo proliferation assay, MCF7. Type of assay: cell-based. The note with it: Homo sapiens, single agent, read-out: Abs IC50. As for the experimental part: as §6, §7, §8
The subject of assay [19] is MDA-MB-157 breast cancer cell line. Briefly: 72 hours CellTiter-Glo proliferation assay, MDA-MB-157. Type of assay: cell-based. The note with it: Homo sapiens, single agent, read-out: Abs IC50. The protocol: as §6, §7, §8
Assay [20] has as its system MDA-MB-231 breast cancer cell line. Briefly: 72 hours CellTiter-Glo proliferation assay, MDA-MB-231. Type of assay: cell-based. The note with it: Homo sapiens, single agent, read-out: Abs IC50. As for the experimental part: as §6, §7, §8
Assay [21] relates to MDA-MB-436 breast cancer cell line. Briefly: 72 hours CellTiter-Glo proliferation assay, MDA-MB-436. The format is cell-based. The note with it: Homo sapiens, single agent, read-out: Abs IC50. The protocol: as §6, §7, §8
Assay [22] deals with MDA-MB-453 breast cancer cell line. Briefly: 72 hours CellTiter-Glo proliferation assay, MDA-MB-453. Type of assay: cell-based. The settings on record: Homo sapiens, single agent, read-out: Abs IC50. As for the experimental part: as §6, §7, §8
Assay [23] has as its system MDA-MB-468 breast cancer cell line. Briefly: 72 hours CellTiter-Glo proliferation assay, MDA-MB-468. The format is cell-based. The settings on record: Homo sapiens, single agent, read-out: Abs IC50. The protocol:
as §6, §7, §8

For assay [24], the system named is SK-BR-3 breast cancer cell line. Briefly: 72 hours CellTiter-Glo proliferation assay, SK-BR-3. Type of assay: cell-based. The settings on record: Homo sapiens, single agent, read-out: Abs IC50. The protocol: as §6, §7, §8
For assay [25], the system named is NCI-H522 lung cancer cell line. Briefly: 72 hours CellTiter-Glo proliferation assay, NCI-H522. The format is cell-based. The settings on record: Homo sapiens, single agent, read-out: Abs IC50. As for the experimental part:
as §6, §7, §8

For assay [26], the system named is NCI-H23 lung cancer cell line. Briefly: 72 hours CellTiter-Glo proliferation assay, NCI-H23. Type of assay: cell-based. The note with it: Homo sapiens, single agent, read-out: Abs IC50. As for the experimental part: as §6, §7, §8
Assay [27] concerns A549 lung cancer cell line. Briefly: 72 hours CellTiter-Glo proliferation assay, A549. Type of assay: cell-based. The note with it: Homo sapiens, single agent, read-out: Abs IC50. The protocol: as §6, §7, §8
In assay [28] the test system is MDA-MB-231 xenografts. Briefly: MDA-MB-231 breast xenograft model, antitumor efficacy. The settings on record: paclitaxel 7.5 mg/kg iv QW. The format is in vivo, female nude rats.
In assay [29] the test system is SK-BR-3 cells. Briefly: SK-BR-3 viability (Cell Titer Glo, propidium iodide), Bliss synergy. Type of assay: cell-based. The note with it: QVD-OPh 10 μM, propidium iodide staining, 72 hours.

Regarding `Cc1c(-c2c(-c3ccc(F)o3)sc3ncnc(O[C@H](Cc4ccccc4OCc4ccnn4CC(F)(F)F)C(=O)O)c23)ccc(OCCN2CCN(C)CC2)c1Cl` [Compound 2, (2R)-2-{[(5Sa)-5-{3-chloro-2-methyl-4-[2-(4-methylpiperazin-1-yl)ethoxy]phenyl}-6-(5-fluorofuran-2-yl)thieno[2,3-d]pyrimidin-4-yl]oxy}-3-(2-{[1-(2,2,2-trifluoroethyl)-1H-pyrazol-5-yl]methoxy}phenyl)propanoic acid], the IC50 (commonly the concentration needed to halve the response being measured) is greater than 2000 nM in assay [1], greater than 2000 nM in assay [2] and 140 nM in assay [3] (H522 cell line). The “Mean of Max Inh” value in [1] is 21.0%; in assay [2], 24.0%; in [3] (H522, 3 days), 92.0%. The “cell lines tested whose growth was inhibited by the single agent” value in [4] is 1/3. For the same compound, the “inhibition of tumor growth, single agent” value in assay [5] is “insufficient in inhibiting tumor growth”.

In the case of `CC(=O)O[C@H]1C(=O)[C@@]2(C)[C@H]([C@H](OC(=O)c3ccccc3)[C@]3(O)C[C@H](OC(=O)[C@H](O)[C@@H](NC(=O)c4ccccc4)c4ccccc4)C(C)=C1C3(C)C)[C@]1(OC(C)=O)CO[C@@H]1C[C@@H]2O` [Paclitaxel, paclitaxel, reference compound], the IC50 in assay [6] was determined as 5.97 nM; in assay [7], 1.7 nM; in [8], 8.82 nM; in assay [9], 4.25 nM; in [10], 9.43 nM; in assay [11], 8.03 nM. Besides, the IC50 in [12] was greater than 1000 nM; in assay [13], 11.6 nM; in [14], 6.5 nM; in [15], 4.33 nM; in assay [16], 8.39 nM; in [17], 0.363 nM. Also, the IC50 in [18] was 10.4 nM; in assay [19], greater than 1000 nM; in [20], 17.5 nM; in assay [21], 14.7 nM; in assay [22] it was 4.2 nM; in [23] it was 3.07 nM. In addition, the half-inhibitory concentration (IC50) in [24] was 2.66 nM; in [25], 0.48 nM; in assay [26], 0.22 nM; in [27] it was 0.163 nM; in [1] (Homo sapiens, 72 h), greater than 1000 nM; in assay [2] (Homo sapiens, 72 h), 0.9 nM. The IC50 in assay [3] (Homo sapiens, NCI-H522, 72 h, H522, 3 days) was 0.2 nM; in assay [4] (single agent, 2/3 lines tested, read-out: IC50 in the cell lines inhibited) it was less than 1 nM. Also, the “Mean of Max Inh” value in [1] was 37.0%; in [2], 75.0%; in assay [3] (H522, 3 days), 61.0%. Also, the “cell lines tested whose growth was inhibited by the single agent” value in assay [4] was 2/3. Also, in [28], the T/C % amounted to 34%.

Consider `CC(C)[C@H](NC(=O)c1ccc2ccccc2n1)C(=O)N[C@@H](CC(=O)O)C(=O)COc1c(F)cccc1F` [QVD-OPH, QVD-OPh hydrate], for which the “effect on cell death induced by docetaxel and Compound 2” value in assay [29] was “efficiently blocked cell death”.
